Laboratory results as given in patent US6964763B1, “Methods and compositions for inhibiting HIV infectivity and blocking chemokine activity” (priority 1997, dated 2005).
Where a SMILES comes first, the peptide text is derived from it.

Experiments:
[1] = system: CD4-gp120 complex formation; assay: Competitive inhibition of 125I-CD4 binding to immobilized gp120; design: species or system HIV-1 (MN and LAI isolates); details: 10-fold molar excess (0.5 μM) competitor, 50 nM 125I-CD4, MN and LAI gp120
Description: FIG. 5 is a graph showing competitive inhibition of ^125I-CD4 binding to gp120. […] Samples were incubated, and bound TSP1 was measured as in FIG. 2. A single data set of triplicate samples (η=3, error as SD) is shown.
(§1) Radiolabeling was performed with Na[^125I]
These observations support a role for salivary TSP1 as a direct inhibitor of HIV infectivity.

CD4 = target: T1, CD4 (Homo sapiens, UniProt P01730); assay: Solid phase binding of 125I-CD4 to immobilized TSP1 and TSP analog
T1 construct: CHO cell-expressed soluble CD4; host or cells: CHO cells
Description: FIG. 12 is a graph showing the binding of ^125I-CD4 to TSP1 and a TSP analog. Increasing concentrations of soluble ^125I-labeled CD4 (0.1μM -1.0 μM) were added to immobilized TSP1, CVSTCG polypeptide (SEQ. ID. No. 1). Samples were incubated and bound ^125I-labeled CD4 measured by solid-binding radio-amino assay, […].
as §1

gp120 (LAI isolate) = target: T2, gp120 (LAI isolate) (Human immunodeficiency virus type 1 group M subtype B, UniProt P03377); type: binding, HIV-1
T2 construct: baculovirus-expressed HIV-1 gp120 derived from LAV and MN isolates; host or cells: baculovirus expression system
Description: Increasing concentrations of soluble ^125I-labeled recombinant gp120LAV (nM -1μM) were incubated with immobilized ligand for 2 hours at 37° C., and bound radioactivity measured as in FIGS. 2A and 2B. […] This plot represents a single data set of triplicate samples (72=2, errors as SD).
Briefly, TSP1 (5-10 μg/ml) or fusion proteins and peptides (10-20 μg/ml) were immobilized on detachable 96-well microtiter plate strips (Immulon-4 Remov-a-well, Dynatech Laboratories, Inc.), by overnight incubation at 4° C. in carbonate buffer (100 mM Na2CO3/1 mM MgCl2/0.02% NaN3, pH 9.8). Washed wells were blocked with 0.5% bovine serum albumin (“BSA”), then incubated in triplicate with soluble radiolabeled ligand for 2.5 hours at 37° C. After extensive washing in 50 mM Tris pH 7.5, 150 mM NaCl, 0.5% Tween-20 (TBS-Tween), bound radioactivity was quantified by gamma counter. […] Specific activity of Na[^125I] was determined for each experiment, ranging from 0.06-1.0 μCi/μg. Specific binding was determined as quenchable in the presence of excess unlabeled ligand, above background binding to BSA-coated wells.
The gp120 envelope protein was tested to determine whether it shared this same specificity.

HIV-1 isolate IIIB = assay: HIV-1 infectivity assay, virus pre-incubated with TSP1 or saliva, p24 ELISA day 7; type: cell-based
Description: HIV-1 isolate IIIB was pre-incubated in the absence of TSP1, or with various concentrations of purified TSP1 for 1 hour at 37° C. Pre-incubated virus-TSP1 mixtures were added to target cells either directly (−), or first passed through 0.2 μm filters (+). Phorbol myrisate acetate (“PMA”) activated primary peripheral blood mononuclear cells (“PBMC”), SK23 (T-cell line) or U937 (promonocytic line) were inoculated with the multiplicities of infection (“moi”) indicated. After an additional 1 hour at 37° C., infected cells were washed, cultured for 7 days, and HIV-1 p24 antigen measured by ELISA. Inhibition is expressed for a single data set as percent of maximum p24 detected in the absence of TSP1.
PMA-stimulated primary PBMC were infected with 0.02 moi HIV/IIIB that had been pre-incubated with TSP1 alone, or with LIMPII fusion protein LFP75-155 alone or in the presence of TSP1, and filtered prior to incubation as in FIG. 7. TSP-mediated inhibition is expressed as percent decrease in p24 relative to maximum p24 detected in the absence of TSP 1. Data shown represent the average of two independent experiments (error as SD).
CD4+T lymphoblastoid (SK23, Jurkat) and promonocytic (U937) cell lines, or peripheral blood mononuclear cells (“PBMC”) obtained from HIV seronegative donors and activated with phytohemagglutinin (“PHA”, 2 μg/ml for 72 hours), were cultured in RPMI 1640, 5% fetal bovine serum (“FBS”, frozen/thawed and complement-inactivated 30 minutes at 56° C.), 100 U/ml penicillin and 100 μg/ml streptomycin (GIBCO/BRL, Grand Island, N.Y.). PBMC medium also contained 32 U/ml interleukin-2 (Sigma Chemical Co., St. Louis, Mo.). FBS samples were pre-screened to assure that levels of TSP were<10 μg/ml. Acute HIV infection was performed using HIV-1 isolate IIIB stock virus as previously described (Laurence et al., “Human Immunodeficiency Virus Infection of Helper T-Cell Clones: Early Proliferative Defects Despite Intact Antigen-Specific Recognition and Interleukin 4 Secretion,” J. Clin. Invest., 83:1843-1848 (1989); Laurence et al., “Human Immunodeficiency Virus Infection of Monocytes: Relationship to Fc-Gamma Receptors and Antibody-Dependent Viral Enhancement,” Immunology, 70:338-343 (I 990), which are hereby incorporated by reference). Briefly, 2.5×10^5 target cells were exposed to stock virus at a moi of either 0.02 or 0.15 for 2 hours at 37° C., washed once with PBS, and re-plated in tissue culture-treated microwells with 0.3 ml fresh culture medium. At 3-4 days post-inoculation, one half of culture supernatant from each well was replaced with fresh medium. HIV activity was determined after 7 days using an ELISA antigen capture assay for HIV-1 p24 (gag) core protein (Dupont Medical Products, Boston, Mass.) of Triton X-100 solubilized culture supernatants.
• 100 μl of HIV-1/IIIB inocula were mixed with 100 μl of various concentrations of whole saliva, salivary fluid fractions, or purified platelet TSP1 diluted in serum-free cell culture medium, and pre-incubated for 2 hours at 37° C. Then, 10-fold serial dilutions were added directly to target cell cultures for assay of infectivity. In some experiments, pre-incubated virus-saliva/TSP mixtures were filtered through 0.2 μm nitrocellulose syringe filters (Gelman Sciences, Ann Arbor, Mich.) prior to inoculation of target cells. Salivary TSP1 Depletion Experiments

[2] = system: monocytotropic strains of HIV-1, p13 and HA593; assay: HIV-1 infectivity assay with monocytotropic patient isolates; type: cell-based; details: 100 μg/ml TSP1, viral moi 0.8
RANTES = target: T3, RANTES (Homo sapiens, UniProt P13501); assay: Solid phase binding of 125I-RANTES to immobilized TSP
T3 sequence (P13501 24-91): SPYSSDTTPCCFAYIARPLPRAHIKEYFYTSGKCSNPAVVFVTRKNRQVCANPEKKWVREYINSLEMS
Description: FIG. 9 is a graph showing the binding of ^125I-RANTES to TSP1. Increasing concentrations of soluble ^125I-labeled RANTES (0.01 μM -10.0 μM) were added to immobilized TSP1. Samples were incubated and bound ^125I-labeled RANTES measured by solid-binding radio-amino assay.
FIG. 10 is a graph showing the Hanes analysis of “^125-RANTES binding to immobilized TSP1. The Hanes analysis provides a measure of assessing the possibility of binding one or more factors to a given molecule.
as §1
In solid phase assays, ^125I-RANTES binded to immobilized TSP. […] Estimated stoichiometry at equilibrium was low (˜0.5 RANTES molecule for every 10 TSP monomer), although the steep slope of the second phase indicated a cooperative interaction (Hanes plot, FIG. 10). One interpretation of the data is that RANTES homodimerization is favored over binding to TSP. At a concentration that shifts equilibrium toward formation of the heterologous complex, positive cooperativity likely reflects a higher apparent affinity of RANTES monomers for binding to TSP, with an increase in monomers being a function of the odd number of sites presented by TSP homotrimers.

CD4 surface expression = assay: Cell surface expression of CD4 by flow cytometry; type: cell-based, human; details: 100 μg/ml TSP1, 3 days; Jurkat, SK23, PHA-activated PBMC
Description: CD4 surface expression on HIV-1 infected or uninfected U937 cells was evaluated by indirect immunofluorescence flow cytometry using anti-CD4 mAb Leu3, as detailed elsewhere (Laurence et al., “Human Immunodeficiency Virus Infection of Helper T-Cell Clones: Early Proliferative Defects Despite Intact Antigen-Specific Recognition and Interleukin 4 Secretion,” J. Clin. Invest., 83:1843-1848 (1989), which is hereby incorporated by reference).
Another mechanism to explain TSP-mediated blockade to HIV infection would be a direct effect on target cells, whereby alterations in cell function would decreased the capacity to support productive infection. To address whether exogenous purified TSP1 induced down-modulation of the high affinity HIV receptor, CD4+ Jurkat and SK23 T-cell lines, as well as PHA-activated PBMC, were monitored for differences in CD4 surface expression after culture for 3 days in the absence or presence of 100 μg/ml TSP1. By flow cytometric analysis of cells stained with fluorescein-conjugated anti-CD4 IgG, no change in relative fluorescence intensity or percent CD4+cell was detected.

[3] = target: recombinant HIV-1 gp160 (gp120 non-covalently linked to gp41) (Human immunodeficiency virus type 1 group M subtype B, UniProt P03375)
Description: Increasing concentrations of soluble ^125I-labeled TSP1 (1 nM-μM) were added to immobilized recombinant HIV-1 gp160 for 3 hours at 22° C., and bound TSP1 measured after extensive washing. Non-linear curve fit was generated with Excell™ version 5.0. Apparent affinity was estimated from Scatchard analysis. (n=2; error calculated as standard deviation, SD).
A fixed concentration of ^125I-labeled TSP 1(50 nM) was added to immobilized rgp 160 in the absence or presence of 10-fold molar excess (0.5 μM) unlabeled TSP1, fusion protein LFP75-155 containing the LIMPII TSP binding domain (aa 75-155), or downstream fusion protein LFP 156-243. Samples were incubated, and bound TSP 1 was measured as in FIG. 2A. Plots represent single data sets of triplicate samples. (n=3, error as SD).
Briefly, TSP1 (5-10 μg/ml) or fusion proteins and peptides (10-20 μg/ml) were immobilized on detachable 96-well microtiter plate strips (Immulon-4 Remov-a-well, Dynatech Laboratories, Inc.), by overnight incubation at 4° C. in carbonate buffer (100 mM Na2CO3/1 mM MgCl2/0.02% NaN3, pH 9.8). Washed wells were blocked with 0.5% bovine serum albumin (“BSA”), then incubated in triplicate with soluble radiolabeled ligand for 2.5 hours at 37° C. After extensive washing in 50 mM Tris pH 7.5, 150 mM NaCl, 0.5% Tween-20 (TBS-Tween), bound radioactivity was quantified by gamma counter. Radiolabeling was performed with Na[^125I] […] Specific activity of Na[^125I] was determined for each experiment, ranging from 0.06-1.0 μCi/μg. Specific binding was determined as quenchable in the presence of excess unlabeled ligand, above background binding to BSA-coated wells.

## CC(C)[C@H](NC(=O)[C@H](CO)NC(=O)[C@@H](N)CS)C(=O)N[C@H](C(=O)N[C@@H](CS)C(=O)NCC(=O)O)[C@@H](C)O [CSVTCG, cys-ser-val-thr-cys-gly] (H-CSVTCG-OH; N-terminus and C-terminus assumed)
[1]
  inhibition of 125I-CD4 binding to immobilized gp120: 53±9%
CD4
  binding of 125I-CD4 to immobilized ligand (in words): binded directly

## GRGDS (GRGDA) [reference compound]
[1]
  inhibition of 125I-CD4 binding to immobilized gp120: 4±4%
gp120 (LAI isolate)
  binding of 125I-gp120 to immobilized peptide (in words): inefficient binding

## VGSCCT [scrambled control peptide, reference compound]
[1]
  inhibition of 125I-CD4 binding to immobilized gp120: enhanced binding
gp120 (LAI isolate)
  binding of 125I-gp120 to immobilized peptide (in words): inefficient binding

## fibrinogen [reference compound]
HIV-1 isolate IIIB; same system as TSP1, pre-filtered
  effect on HIV-1 infection of PBMC (in words): no effect

## thrombospondin-1 [TSP1]
[2]
  inhibition of HIV infectivity, strains p13 and HA593: ≥ 98±1%
RANTES
  estimated stoichiometry at equilibrium: ~0.5 RANTES molecule for every 10 TSP monomer
RANTES; saturatable, biphasic higher order kinetics, read-out: half maximal binding of 125I-RANTES to immobilized TSP
  Kd: ~330 nM
[1]
  inhibition of 125I-CD4 binding to immobilized gp120: complete inhibition
CD4 surface expression
  change in relative fluorescence intensity or percent CD4+ cells: no change
HIV-1 isolate IIIB; 2-10 μg/ml TSP1, pre-filtered
  reduction of HIV-1 infection of PHA-activated donor PBMC (p24): > 83%
HIV-1 isolate IIIB; 5 minutes exposure of TSP-virion mixture, 1 μg/ml TSP1
  reduction of HIV-1 infectivity after brief exposure: > 50%
HIV-1 isolate IIIB; SK23 CD4+ T-lymphoblastoid cell line
  inhibition of HIV-1 IIIB infection, SK23: ≥ 90.7%
HIV-1 isolate IIIB; U937 monocytoid cell line
  inhibition of HIV-1 IIIB infection, U937: ≥ 83.0%
HIV-1 isolate IIIB; no filtration, only with high concentration of TSP1 and low moi inoculum
  inhibition of HIV-1 on direct addition of TSP1: 50-75%
[3]; 10-fold molar excess (0.5 μM) unlabeled competitor, 50 nM 125I-TSP1
  inhibition of 125I-TSP1 binding to gp160: 94±6%
[3]; read-out: apparent affinity of TSP1 binding to immobilized recombinant gp160, soluble 125I-TSP1, Scatchard analysis
  Kd: ~250 nM
CD4
  binding of 125I-CD4 to immobilized ligand (in words): concentration dependent saturatable manner
